Measured values: paper PMC6179045, “Design, synthesis and biological evaluation of tricyclic pyrazolo[1,5-c][1,3]benzoxazin-5(5H)-one scaffolds as selective BuChE inhibitors” (Journal of Enzyme Inhibition and Medicinal Chemistry, 2018)
Read-outs that look alike come from different tables or passages of the source.

How the values were obtained:
[1] = target: T1, BuChE from equine serum (eqBuChE) (Equus caballus, UniProt P81908); experiment: BuChE activity assay (modified Ellman's method); format: biochemical, equine (horse); conditions: for IC50: mean ± SEM, n = 3; for inhibition at 20 µM / inhibition % at 20 µM BuChE: 20 µM compound
T1 construct: BuChE from equine serum (C4290-1KU; Sigma); purchased Sigma C4290-1KU; host or cells: equine serum
T1 sequence (P81908 whole entry): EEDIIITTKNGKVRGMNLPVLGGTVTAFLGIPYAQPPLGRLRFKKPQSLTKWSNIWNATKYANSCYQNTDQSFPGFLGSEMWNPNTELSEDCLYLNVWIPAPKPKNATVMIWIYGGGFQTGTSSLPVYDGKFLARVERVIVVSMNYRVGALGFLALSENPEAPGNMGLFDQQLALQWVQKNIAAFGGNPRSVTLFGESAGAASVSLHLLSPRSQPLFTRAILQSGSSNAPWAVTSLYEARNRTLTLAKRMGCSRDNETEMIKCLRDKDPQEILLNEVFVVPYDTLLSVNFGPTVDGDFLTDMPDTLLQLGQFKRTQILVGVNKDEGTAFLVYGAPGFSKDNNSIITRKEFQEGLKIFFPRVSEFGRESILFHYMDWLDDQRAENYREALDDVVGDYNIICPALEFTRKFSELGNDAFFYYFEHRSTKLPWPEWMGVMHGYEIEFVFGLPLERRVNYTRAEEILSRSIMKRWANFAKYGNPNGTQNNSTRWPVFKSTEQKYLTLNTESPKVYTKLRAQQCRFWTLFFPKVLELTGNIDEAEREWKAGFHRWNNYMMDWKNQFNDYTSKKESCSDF
Description: (§1) Enzymatic activity assays were performed on AChE from electric eel (C3389-500UN; Sigma) and BuChE from equine serum (C4290-1KU; Sigma), according to Ellman’s method with light modification. The experiment was performed in 48-well plates in a final volume of 500 µl. Each well contained 0.036 U/ml of EeAChE or eqBuChE, and 0.1 M pH = 8 phosphate buffer. They were incubated for 20 min at different concentrations of test compound at 37 °C. […] The DTNB produced the yellow anion 5-thio-2-nitrobenzoic acid along with the enzymatic degradation of acetylthiocholine or butyrylthiocholine. The absorbance of each assay was measured at 410 nm after 20 min in a Biotek Synergy HTX Multi-Mode reader. The IC50 values were calculated graphically from inhibition curves (log inhibitor concentration vs percent of inhibition). A control experiment was performed under the same conditions without inhibitor and the blank contained buffer, DMSO, DTNB and substrate.

[2] = target: T2, AChE from electric eel (EeAChE) (Electrophorus electricus, UniProt O42275); experiment: AChE activity assay (modified Ellman's method); format: biochemical; conditions: for IC50: mean ± SEM, n = 3
T2 construct: AChE from electric eel (C3389-500UN; Sigma); purchased Sigma C3389-500UN
T2 sequence (O42275 24-633): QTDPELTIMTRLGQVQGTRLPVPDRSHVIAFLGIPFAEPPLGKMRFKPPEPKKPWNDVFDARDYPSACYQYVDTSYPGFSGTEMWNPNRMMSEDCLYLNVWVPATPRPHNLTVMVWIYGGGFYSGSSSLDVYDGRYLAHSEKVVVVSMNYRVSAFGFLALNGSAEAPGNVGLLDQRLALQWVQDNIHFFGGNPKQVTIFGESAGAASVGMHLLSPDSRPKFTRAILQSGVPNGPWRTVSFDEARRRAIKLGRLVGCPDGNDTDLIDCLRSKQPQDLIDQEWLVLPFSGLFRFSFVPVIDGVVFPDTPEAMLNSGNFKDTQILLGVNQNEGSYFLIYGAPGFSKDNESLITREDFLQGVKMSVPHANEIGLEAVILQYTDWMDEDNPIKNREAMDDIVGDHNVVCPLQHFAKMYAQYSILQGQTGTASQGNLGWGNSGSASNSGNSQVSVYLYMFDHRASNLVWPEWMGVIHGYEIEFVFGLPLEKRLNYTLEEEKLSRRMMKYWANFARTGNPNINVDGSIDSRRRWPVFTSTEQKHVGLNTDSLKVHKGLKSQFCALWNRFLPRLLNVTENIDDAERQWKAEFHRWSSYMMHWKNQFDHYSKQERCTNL
Description: as §1

[3] = system: differentiated PC12 cells; experiment: Neuroprotective effect against H2O2-induced damage in differentiated PC12 cells; format: cell-based; conditions: Rattus norvegicus, PC-12, 25 µM compound 3 h before H2O2 (300 µM), 24 h, MTT, p < .05 vs. H2O2 alone, read-out: cell viability (neuroprotective activity)
Description: The differentiated PC12 cells and oxidative agent H2O2 were used as in vitro model to assess neuronal differentiation and neurobiochemical and neurobiological properties[39]^,[44]. Differentiated PC12 cells were incubated with different concentrations of compounds 6a and 6g for 3 h before treatment with H2O2 (300 µM). Cell viability was measured after 24 h using MTT method. Briefly, 20 µL of 0.5 mg/ml MTT reagent was added into the cells and incubated for 4 h. After 4 h, cell culture was removed and then 150 µl DMSO was added to dissolve the formazan. OD570 value was measured at 570 nm on the Biotek Synergy HTX Multi-Mode reader. Results were adjusted by OD570 value in the blank.
. The differentiated PC12 cells were pretreated with three concentrations (10, 25 and 50 µM) for 3 h, before treatment with H2O2 (300 µM), and cell viability was measured after 24 h using MTT method. […]. Neuroprotective activity of compounds 6a and 6g […] was evaluated by subjecting PC12 cells to H2O2-induced damage. […]

[4] = Cytotoxicity MTT assay in PC12 cells; format: cell-based; conditions: rat, 1-50 µM, read-out: relative cell viability (cytotoxicity)
Description: PC12 cells were used to evaluate cell cytotoxicity by methyl thiazolyl tetrazolium (MTT) assay. PC12 cells were cultured in DMEM containing 10% fetal bovine serum, 100 µg/ml streptomycin and 100 units/ml penicillin at 37 °C in a 5% CO2 humidified atmosphere, and inoculated at 1 × 10^4 cells per well in 96-well plate. After cultured for 24 h, the cells were treated with different concentration of compounds in DMEM for 24 h. Then 20 µl of 0.5 mg/ml MTT reagent was added into the cells and incubated for 4 h. After 4 h, cell culture was removed and then 150 µl DMSO was added to dissolve the formazan. The optical density was measured at 570 nm (OD570). Cell viability was calculated from three independent experiments. OD570 of formazan in blank group was set as 100% of viability.
Blank: cultured with fresh medium only.

eqBuChE = target: T3, eqBuChE (Equus caballus, UniProt P81908); experiment: Kinetic study of eqBuChE inhibition (Lineweaver-Burk plots); format: biochemical, equine (horse); conditions: for type of BuChE inhibition: Lineweaver-Burk plots; for Ki: Lineweaver-Burk secondary plots, inhibitor 5, 10 and 20 µM, read-out: dissociation constant Ki against BuChE
T3 construct: BuChE from equine serum (C4290-1KU; Sigma); purchased Sigma C4290-1KU; host or cells: equine serum
T3 sequence (P81908 whole entry): as the sequence (P81908 whole entry) above
Description: . The kinetic type of enzyme inhibition was obtained through the modified Ellman’s method and Lineweaver–Burk secondary plots. Apparent inhibition constants and kinetic parameters were calculated within the “Enzyme kinetics” module of Prism 5.
The kinetic studies were carried out at three fixed inhibitor concentrations (5, 10 and 20 µM).

[5] = Log P assessment (shake flask method, octanol/PBS); format: physicochemical; conditions: octanol/PBS pH 7.4, shake flask, 37 °C
Description: Log P, defined as the logarithm of octanol–water partition coefficient, is an important parameter to evaluate lipophilicity of compounds[45]. It can be calculated by determining the concentration of compound in octanol phase and water phase until the partition equilibrium was completed. In this work, log P of title compounds was measured by the shake flask method with slight modification. PBS (pH = 7.4) was used as the water. Both the octanol and the aqueous phase were saturated with each other before use. The assay mixture containing test compounds was shaken at 37 °C. After 24 h, the mixture was centrifuged at 4,000 rpm for 30 min, followed by the measurement with UV spectrophotometer. Experiments were conducted in triplicate and log p values were calculated.

[6] = AChE from electric eel, 20 µM compound, read-out: inhibition at 20 µM AChE
[7] = BuChE from horse serum, read-out: inhibition % at 20 µM BuChE
[8] = AChE from electric eel, 20 µM compound
[9] = AChE from electric eel, 20 µM compound, read-out: inhibition % at 20 µM AChE
[10] = BuChE from horse serum, read-out: inhibition at 20 µM BuChE

O=C1Oc2ccccc2C2CC(c3ccccc3)=NN12 (centres unmarked) [Compound 3a, 2-Phenyl-1,10b-dihydro-5H-pyrazolo[1,5-c][1,3]benzoxazin-5-one]
IC50 ([1]; BuChE from horse serum): 9.47 ± 0.23 µM
inhibition at 20 µM [2, 6]: < 0%

S=C1Oc2ccccc2C2CC(c3ccccc3)=NN12 (centres unmarked) [Compound 3b, 2-Phenyl-1,10b-dihydro-5H-pyrazolo[1,5-c][1,3]benzoxazin-5-thione]
inhibition at 20 µM [1, 7]: 9 ± 3%
inhibition at 20 µM [2, 6]: < 0%

O=C1Oc2ccccc2C2CC(c3ccc(F)cc3)=NN12 (centres unmarked) [Compound 3c, 2-(4-Fluoro)phenyl-1,10b-dihydro-5H-pyrazolo[1,5-c][1,3]benzoxazin-5-one]
inhibition % at 20 µM BuChE ([1]; BuChE from horse serum): 15 ± 2%
inhibition % at 20 µM AChE [2, 8]: 15 ± 3%

O=C1Oc2ccc(Cl)cc2C2CC(c3ccc(Cl)cc3)=NN12 (centres unmarked) [Compound 3d, 9-Chloro-2-(4-chloro)phenyl-1,10b-dihydro-5H-pyrazolo[1,5-c][1,3]benzoxazin-5-one]
inhibition % at 20 µM BuChE ([1]; BuChE from horse serum): 41 ± 6%
inhibition % at 20 µM AChE [2, 8]: 39 ± 1%

Cc1ccc(C2=NN3C(=O)Oc4ccc(Cl)cc4C3C2)cc1 (centres unmarked) [Compound 3e, 9-Chloro-2-(4-methyl)phenyl-1,10b-dihydro-5H-pyrazolo[1,5-c][1,3]benzoxazin-5-one]
inhibition % at 20 µM BuChE ([1]; BuChE from horse serum): 32 ± 5%
inhibition % at 20 µM AChE [2, 8]: 32 ± 2%

Cc1ccc(C2=NN3C(=O)Oc4ccccc4C3C2)cc1 (centres unmarked) [Compound 3f, 2–(4-Methyl)phenyl-1,10b-dihydro-5H-pyrazolo[1,5-c][1,3]benzoxazin-5-one]
inhibition % at 20 µM BuChE ([1]; BuChE from horse serum): 32 ± 2%
inhibition % at 20 µM AChE [2, 8]: 48 ± 3%

CC1=NN2C(=O)Oc3c(Cl)cc(Cl)cc3C2C1 (centres unmarked) [Compound 6a, 7,9-Dichloro-2-methyl-1,10b-dihydro-5H-pyrazolo[1,5-c][1,3]benzoxazin-5-one]
viability at 25 µM [3]: > 70%
viability at 24 h [4]: > 90%
IC50 ([1]; BuChE from horse serum): 1.06 ± 0.11 µM
inhibition at 20 µM [2, 9]: 39 ± 3%
type of BuChE inhibition (eqBuChE): mixed-type inhibition
Ki (eqBuChE): 7.46 µM
logP at 24 h [5]: 1.5

CC1=NN2C(=S)Oc3c(Cl)cc(Cl)cc3C2C1 (centres unmarked) [Compound 6b, 7,9-Dichloro-2-methyl-1,10b-dihydro-5H-pyrazolo[1,5-c][1,3]benzoxazin-5-thione]
inhibition at 20 µM [1, 10]: < 0%
inhibition at 20 µM [2, 9]: 25 ± 1%

CC1=NN2C(=O)Oc3c(Br)cc(Br)cc3C2C1 (centres unmarked) [Compound 6c, 7,9-Dibromo-2-methyl-1,10b-dihydro-5H-pyrazolo[1,5-c][1,3]benzoxazin-5-one]
IC50 ([1]; BuChE from horse serum): 1.63 ± 0.42 µM
IC50 ([2]; AChE from electric eel): 10.7 ± 0.64 µM
logP at 24 h [5]: 1.48

CC1=NN2C(=S)Oc3c(Br)cc(Br)cc3C2C1 (centres unmarked) [Compound 6d, 7,9-Dibromo-2-methyl-1,10b-dihydro-5H-pyrazolo[1,5-c][1,3]benzoxazin-5-thione]
inhibition at 20 µM [1, 10]: < 0%
inhibition at 20 µM [2, 9]: 26 ± 3%

CC1=NN2C(=O)Oc3ccc(Cl)cc3C2C1 (centres unmarked) [Compound 6e, 9-Chloro-2-methyl-1,10b-dihydro-5H-pyrazolo[1,5-c][1,3]benzoxazin-5-one]
IC50 ([1]; BuChE from horse serum): 6.29 ± 0.65 µM
inhibition at 20 µM [2, 9]: 16 ± 1%

CC1=NN2C(=S)Oc3ccc(Cl)cc3C2C1 (centres unmarked) [Compound 6f, 9-Chloro-2-methyl-1,10b-dihydro-5H-pyrazolo[1,5-c][1,3]benzoxazin-5-thione]
inhibition at 20 µM [1, 10]: < 0%
inhibition at 20 µM [2, 9]: 18 ± 2%

CC1=NN2C(=O)Oc3ccc(Br)cc3C2C1 (centres unmarked) [Compound 6g, 9-Bromo-2-methyl-1,10b-dihydro-5H-pyrazolo[1,5-c][1,3]benzoxazin-5-one]
viability at 25 µM [3]: > 70%
viability at 24 h [4]: > 90%
IC50 ([1]; BuChE from horse serum): 1.63 ± 0.34 µM
inhibition at 20 µM [2, 9]: 26 ± 1%
type of BuChE inhibition (eqBuChE): mixed-type inhibition
Ki (eqBuChE): 3.09 µM
logP at 24 h [5]: 1.63

CC1=NN2C(=S)Oc3ccc(Br)cc3C2C1 (centres unmarked) [Compound 6h, 9-Bromo-2-methyl-1,10b-dihydro-5H-pyrazolo[1,5-c][1,3]benzoxazin-5-thione]
inhibition at 20 µM [1, 10]: < 0%
inhibition at 20 µM [2, 9]: 27 ± 2%

CC1=NN2C(=O)Oc3c(Br)cc(Cl)cc3C2C1 (centres unmarked) [Compound 6i, 7-Bromo-9-chloro-2-methyl-1,10b-dihydro-5H-pyrazolo[1,5-c][1,3]benzoxazin-5-one]
IC50 ([1]; BuChE from horse serum): 2.44 ± 0.44 µM
IC50 ([2]; AChE from electric eel): 13 ± 0.32 µM

CC1=NN2C(=S)Oc3c(Br)cc(Cl)cc3C2C1 (centres unmarked) [Compound 6j, 7-Bromo-9-chloro-2-methyl-1,10b-dihydro-5H-pyrazolo[1,5-c][1,3]benzoxazin-5-thione]
inhibition at 20 µM [1, 10]: < 0%
inhibition at 20 µM [2, 9]: 14 ± 2%

COc1cccc2c1OC(=O)N1N=C(C)CC21 (centres unmarked) [Compound 6k, 2-Methyl-7-methoxy-1,10b-dihydro-5H-pyrazolo[1,5-c][1,3]benzoxazin-5-one]
inhibition % at 20 µM BuChE ([1]; BuChE from horse serum): 14 ± 3%
inhibition at 20 µM [1, 7]: < 20%
inhibition at 20 µM [2, 9]: 35 ± 3%

COc1cccc2c1OC(=S)N1N=C(C)CC21 (centres unmarked) [Compound 6l, 2-Methyl-7-methoxy-1,10b-dihydro-5H-pyrazolo[1,5-c][1,3]benzoxazin-5-thione]
inhibition at 20 µM [1, 7]: 2 ± 2%
inhibition at 20 µM [2, 9]: 30 ± 2%

CC1=NN2C(=O)Oc3ccc(C)cc3C2C1 (centres unmarked) [Compound 6m, 2,9-Dimethyl-1,10b-dihydro-5H-pyrazolo[1,5-c][1,3]benzoxazin-5-one]
inhibition % at 20 µM BuChE ([1]; BuChE from horse serum): 14 ± 1%
inhibition at 20 µM [1, 7]: < 20%
inhibition at 20 µM [2, 6]: < 0%

CC1=NN2C(=S)Oc3ccc(C)cc3C2C1 (centres unmarked) [Compound 6n, 2,9-Dimethyl-1,10b-dihydro-5H-pyrazolo[1,5-c][1,3]benzoxazin-5-thione]
inhibition at 20 µM [1, 10]: < 0%
inhibition at 20 µM [2, 9]: 15 ± 2%

CC1=NN2C(=O)Oc3ccccc3C2C1 (centres unmarked) [Compound 6o, 2-Methyl-1,10b-dihydro-5H-pyrazolo[1,5-c][1,3]benzoxazin-5-one]
inhibition at 20 µM ([1]; read-out: inhibition % at 20 µM BuChE, BuChE from horse serum): 50.1 ± 4.3%
inhibition at 20 µM ([2]; read-out: inhibition at 20 µM AChE): < 0%

CC1=NN2C(=S)Oc3ccccc3C2C1 (centres unmarked) [Compound 6p, 2-Methyl-1,10b-dihydro-5H-pyrazolo[1,5-c][1,3]benzoxazin-5-thione]
inhibition at 20 µM [1, 10]: < 0%
inhibition at 20 µM [2, 6]: < 0%

CC1=NN2C(=O)Oc3c(Br)cccc3C2C1 (centres unmarked) [Compound 6q, 7-Bromo-2-methyl-1,10b-dihydro-5H-pyrazolo[1,5-c][1,3]benzoxazin-5-one]
IC50 ([1]; BuChE from horse serum): 3.22 ± 1.06 µM
inhibition at 20 µM [2, 6]: < 0%
